The results in this text go back to US4925861A, “Carboxystyrene derivatives and drugs containing them as effective ingredients” (Mitsubishi Kasei Corporation, priority 1987, dated 1990).

Data set [1] can be described thus: Acute toxicity, oral, mice. As to conditions: mouse, in vivo, suspension in 1% tragacanth, ddy male mice, observed for 7 days. An excerpt: A suspension of the compound according to the present invention in 1% tragacanth solution was orally administered to a group of 4 to 5 ddy male mice of 6 week old.
Data set [2] relates to SRS extracted from guinea pig lung. In words: in vitro SRS antagonistic activity (contraction of isolated guinea pig ileum). The following applies: Cavia porcellus, concentration reducing the control contraction (one unit of SRS) of guinea pig ileum by 50%, Tyrode's solution, 37° C., mepyramine and atropine present, read-out: Anti-SRS Activity (Minimal Effective Concentration). It is filed as cell-based. Here is the method: The terminal ileum was taken from a male Hartley guinea pig (200 to 450 g) and the lumen was washed. The ileum was set in 5 ml of a tissue bath containing Tyrode's solution: NaCl 136 mM, KCl 2.7 mM, NaHCO3 11.9 mM, MgCl2 1.05 mM, CaCl2 1.8 mM, NaH2 PO4 0.4 mM, and glucose 5.6 mM. The temperature in the bath was kept at 37° C. and the bath was aerated by 95% oxygen/5% carbon dioxide. The buffer solution also contained 10^-7 g/ml mepyramine and 5×10^-8 g/ml atropine in order to prevent the contraction caused by histamine and acetylcholine. Isometric measurement was done by an […] transducer (TD-112S, NIPPON KODEN, Japan) and change of tension in gram was recorded in a recticorder (RTG-4124, NIPPON KODEN, Japan). A tension of 0.5 g was passively loaded on the ileum. Thus, the contraction response of the ileum to SRS extracted from guinea pig lung was observed. The tonic contraction corresponding to one unit of SRS which corresponded to 5 ng of histamine was used as control. Varying concentrations of each compound to be tested were added to the tissue bath. The concentration of each compound to be tested which reduced the contraction of the control by 50%, IC50, was shown as a minimal effective concentration in M in Table 3.

The target of data set [3] is Phospholipase A2 from Porcine Pancreas (Sus scrofa, UniProt P00592). In words: in vitro phospholipase inhibiting activity (DPybPC fluorescence). The following applies: pH 8, read-out: Phospholipase A2 Inhibition (%).
Phospholipase A2 from Porcine Pancreas, sequence (P00592 23-146): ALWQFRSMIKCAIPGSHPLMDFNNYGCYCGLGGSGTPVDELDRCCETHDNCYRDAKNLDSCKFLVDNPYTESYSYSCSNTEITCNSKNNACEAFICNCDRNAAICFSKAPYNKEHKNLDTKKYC
Procedure: In 2.4 ml of 5 mM tris(hydroxymethyl)aminomethane hydrochloride buffer (pH 8.0) containing 0.1M sodium chloride and 5 mM calcium chloride, 0.3 ml of a phospholipase A2 solution from Naja mocambique or Porcine pancreas (Sigma) in a final concentration of 0.014 units per 0.01 μg per ml was preincubated with 0.03 ml of an inhibitor at 25° C. for 15 minutes. A synthetic substrate DPybPC, 1,2-bis(4-(l-pyreno)butyryl)-syn-glycero-3-phosphorylcholine (0.3 ml, final concentration: 2 μM) was added and incubation was continued for 30 minutes. The reaction was terminated by addition of hydrochloric acid (1N, 0.5 ml), the fluorescence intensity was measured (Ex. 332 nm; Em. 382 nm) to calculate the activity of the phospholipase A2. The enzymes, synthetic substrate and inhibitor used were dissolved or diluted in the buffer.

Take `CCCc1csc(C=Cc2cccc(C(=O)NCC(CC)(CC)C(=O)O)c2)n1` [Compound 19, 3-(N-(3-(2-(4-propyl-2-thiazolyl))ethenyl)benzoyl)amino-2,2-diethylpropionic acid]: in data set [1], the 50% lethal dose (LD50) (as a rule, the dose at which mortality reaches 50%) at 168 h is greater than 1000 mg/kg. For the compound `CC(C)c1csc(C=Cc2cccc(C(=O)O)c2)n1` [Compound 5, 3-(2-(4-isopropyl-2-thiazolyl))ethenylbenzoic acid], the IC50 in data set [2] was determined as 50 nM.

On to `O=C(O)c1cccc(C=Cc2nc3ccccc3s2)c1` [Compound 1, 3-(2-(2-benzthiazolyl))ethenylbenzoic acid], for which the IC50 in data set [2] worked out at 200 nM.

`CC(C)c1csc(C=Cc2cccc(C(=O)NCC3(C(=O)O)CCCCC3)c2)n1` [Compound 22, 3-(N-(3-(2-(4-isopropyl-2-thiazolyl))ethenyl)benzoyl)amino-2-spiro-l'-cyclohexanepropionic acid]: the inhibition (usually the relative decrease from the control value, in per cent) at 10 µM in data set [3] came to 74%.

In the case of `CC(C)(CNC(=O)c1cccc(C=Cc2nc3ccccc3s2)c1)C(=O)O` [Compound 7], the IC50 in data set [2] came to 50 nM. The compound also registered a median lethal dose (LD50) at 168 h in data set [1] greater than 700 mg/kg. `O=C(O)c1cccc(C=Cc2ccc3ccccc3n2)c1` [Compound 3]: the IC50 in data set [2] stood at 50 nM. On the same count and under the same terms, the value for `CCCc1csc(C=Cc2cccc(C(=O)O)c2)n1` [Compound 2] was 20 nM; that for `O=C(O)CCCNC(=O)c1cccc(C=Cc2nc3ccccc3s2)c1` [Compound 6, 4-(N-(3-(2-(2-benzthiazolyl))ethenyl)benzoyl)aminobutyric acid] was 10000 nM.
